{
  "source": "ChEMBL document CHEMBL1127066",
  "about": "“Discovery and structure-activity relationship of a series of 1-carba-1-dethiacephems exhibiting activity against methicillin-resistant Staphylococcus aureus” (J Med Chem, 1993)",
  "data": [
    {"system": "Escherichia coli", "assay": "In vitro evaluation of antimicrobial activity against Escherichia coli EC14 strain", "type": "functional", "units": {"MIC": "µg/mL"}, "values": [
      {"compound": "Nc1ccc2nc(SC3=C(C(=O)[O-])N4C(=O)[C@@H](NC(=O)/C(=N/OCCF)c5csc(N)n5)[C@H]4CC3)sc2c1.[Na+]", "MIC": 0.25},
      {"compound": "Nc1nc(/C(=N\\OCCF)C(=O)N[C@@H]2C(=O)N3C(C(=O)[O-])=C(Sc4nc5cc(Cl)ccc5s4)CC[C@H]23)cs1.[Na+]", "MIC": 0.25},
      {"compound": "Cc1csc(SC2=C(C(=O)[O-])N3C(=O)[C@@H](NC(=O)/C(=N/OCCF)c4csc(N)n4)[C@H]3CC2)n1.[Na+]", "MIC": 0.25}
    ]},
    {"system": "Enterobacter cloacae", "assay": "In vitro evaluation of antimicrobial activity against Enterobacter cloacae EB5 strain", "type": "functional", "units": {"MIC": "µg/mL"}, "values": [
      {"compound": "Nc1ccc2nc(SC3=C(C(=O)[O-])N4C(=O)[C@@H](NC(=O)/C(=N/OCCF)c5csc(N)n5)[C@H]4CC3)sc2c1.[Na+]", "MIC": 2},
      {"compound": "Nc1nc(/C(=N\\OCCF)C(=O)N[C@@H]2C(=O)N3C(C(=O)[O-])=C(Sc4nc5cc(Cl)ccc5s4)CC[C@H]23)cs1.[Na+]", "MIC": 2},
      {"compound": "Cc1csc(SC2=C(C(=O)[O-])N3C(=O)[C@@H](NC(=O)/C(=N/OCCF)c4csc(N)n4)[C@H]3CC2)n1.[Na+]", "MIC": 2}
    ]},
    {"system": "Haemophilus influenzae", "assay": "In vitro antimicrobial activity against Haemophilus influenzae C.L. strain", "type": "functional", "units": {"MIC": "µg/mL"}, "values": [
      {"compound": "Nc1ccc2nc(SC3=C(C(=O)[O-])N4C(=O)[C@@H](NC(=O)/C(=N/OCCF)c5csc(N)n5)[C@H]4CC3)sc2c1.[Na+]", "MIC": 0.03},
      {"compound": "Nc1nc(/C(=N\\OCCF)C(=O)N[C@@H]2C(=O)N3C(C(=O)[O-])=C(Sc4nc5cc(Cl)ccc5s4)CC[C@H]23)cs1.[Na+]", "MIC": 0.06},
      {"compound": "Cc1csc(SC2=C(C(=O)[O-])N3C(=O)[C@@H](NC(=O)/C(=N/OCCF)c4csc(N)n4)[C@H]3CC2)n1.[Na+]", "MIC": "< 0.008"}
    ]},
    {"system": "Klebsiella", "assay": "In vitro antimicrobial activity against Klebsiella X26 strain", "type": "functional", "units": {"MIC": "µg/mL"}, "values": [
      {"compound": "Nc1ccc2nc(SC3=C(C(=O)[O-])N4C(=O)[C@@H](NC(=O)/C(=N/OCCF)c5csc(N)n5)[C@H]4CC3)sc2c1.[Na+]", "MIC": 0.03},
      {"compound": "Nc1nc(/C(=N\\OCCF)C(=O)N[C@@H]2C(=O)N3C(C(=O)[O-])=C(Sc4nc5cc(Cl)ccc5s4)CC[C@H]23)cs1.[Na+]", "MIC": 0.06},
      {"compound": "Cc1csc(SC2=C(C(=O)[O-])N3C(=O)[C@@H](NC(=O)/C(=N/OCCF)c4csc(N)n4)[C@H]3CC2)n1.[Na+]", "MIC": "< 0.008"}
    ]},
    {"system": "Pseudomonas aeruginosa", "assay": "Antimicrobial activity against Pseudomonas PS18 strain", "type": "functional", "units": {"MIC": "µg/mL"}, "values": [
      {"compound": "Nc1ccc2nc(SC3=C(C(=O)[O-])N4C(=O)[C@@H](NC(=O)/C(=N/OCCF)c5csc(N)n5)[C@H]4CC3)sc2c1.[Na+]", "MIC": 128},
      {"compound": "Nc1nc(/C(=N\\OCCF)C(=O)N[C@@H]2C(=O)N3C(C(=O)[O-])=C(Sc4nc5cc(Cl)ccc5s4)CC[C@H]23)cs1.[Na+]", "MIC": 64},
      {"compound": "Cc1csc(SC2=C(C(=O)[O-])N3C(=O)[C@@H](NC(=O)/C(=N/OCCF)c4csc(N)n4)[C@H]3CC2)n1.[Na+]", "MIC": 32}
    ]},
    {"system": "Pseudomonas aeruginosa", "assay": "In vitro antimicrobial activity against Pseudomonas X239 strain", "type": "functional", "units": {"MIC": "µg/mL"}, "values": [
      {"compound": "Nc1ccc2nc(SC3=C(C(=O)[O-])N4C(=O)[C@@H](NC(=O)/C(=N/OCCF)c5csc(N)n5)[C@H]4CC3)sc2c1.[Na+]", "MIC": "> 128"},
      {"compound": "Nc1nc(/C(=N\\OCCF)C(=O)N[C@@H]2C(=O)N3C(C(=O)[O-])=C(Sc4nc5cc(Cl)ccc5s4)CC[C@H]23)cs1.[Na+]", "MIC": "> 128"},
      {"compound": "Cc1csc(SC2=C(C(=O)[O-])N3C(=O)[C@@H](NC(=O)/C(=N/OCCF)c4csc(N)n4)[C@H]3CC2)n1.[Na+]", "MIC": 64}
    ]},
    {"system": "Staphylococcus epidermidis", "assay": "In vitro antimicrobial activity against Staphylococcus epidermidis 222 strain", "type": "functional", "units": {"MIC": "µg/mL"}, "values": [
      {"compound": "Nc1ccc2nc(SC3=C(C(=O)[O-])N4C(=O)[C@@H](NC(=O)/C(=N/OCCF)c5csc(N)n5)[C@H]4CC3)sc2c1.[Na+]", "MIC": 1},
      {"compound": "Nc1nc(/C(=N\\OCCF)C(=O)N[C@@H]2C(=O)N3C(C(=O)[O-])=C(Sc4nc5cc(Cl)ccc5s4)CC[C@H]23)cs1.[Na+]", "MIC": 0.5},
      {"compound": "Cc1csc(SC2=C(C(=O)[O-])N3C(=O)[C@@H](NC(=O)/C(=N/OCCF)c4csc(N)n4)[C@H]3CC2)n1.[Na+]", "MIC": 0.5}
    ]},
    {"system": "Staphylococcus epidermidis", "assay": "In vitro antimicrobial activity against Staphylococcus epidermidis 270 strain", "type": "functional", "units": {"MIC": "µg/mL"}, "values": [
      {"compound": "Nc1ccc2nc(SC3=C(C(=O)[O-])N4C(=O)[C@@H](NC(=O)/C(=N/OCCF)c5csc(N)n5)[C@H]4CC3)sc2c1.[Na+]", "MIC": 1},
      {"compound": "Nc1nc(/C(=N\\OCCF)C(=O)N[C@@H]2C(=O)N3C(C(=O)[O-])=C(Sc4nc5cc(Cl)ccc5s4)CC[C@H]23)cs1.[Na+]", "MIC": 0.5},
      {"compound": "Cc1csc(SC2=C(C(=O)[O-])N3C(=O)[C@@H](NC(=O)/C(=N/OCCF)c4csc(N)n4)[C@H]3CC2)n1.[Na+]", "MIC": 4}
    ]},
    {"system": "Staphylococcus aureus", "assay": "In vitro antimicrobial activity against Staphylococcus aureus S13E strain", "type": "functional", "units": {"MIC": "µg/mL"}, "values": [
      {"compound": "Nc1ccc2nc(SC3=C(C(=O)[O-])N4C(=O)[C@@H](NC(=O)/C(=N/OCCF)c5csc(N)n5)[C@H]4CC3)sc2c1.[Na+]", "MIC": 4},
      {"compound": "Nc1nc(/C(=N\\OCCF)C(=O)N[C@@H]2C(=O)N3C(C(=O)[O-])=C(Sc4nc5cc(Cl)ccc5s4)CC[C@H]23)cs1.[Na+]", "MIC": 4},
      {"compound": "Cc1csc(SC2=C(C(=O)[O-])N3C(=O)[C@@H](NC(=O)/C(=N/OCCF)c4csc(N)n4)[C@H]3CC2)n1.[Na+]", "MIC": 4}
    ]},
    {"system": "Staphylococcus aureus", "assay": "In vitro antimicrobial activity against Staphylococcus aureus X400 strain", "type": "functional", "units": {"MIC": "µg/mL"}, "values": [
      {"compound": "Nc1ccc2nc(SC3=C(C(=O)[O-])N4C(=O)[C@@H](NC(=O)/C(=N/OCCF)c5csc(N)n5)[C@H]4CC3)sc2c1.[Na+]", "MIC": 16},
      {"compound": "Nc1nc(/C(=N\\OCCF)C(=O)N[C@@H]2C(=O)N3C(C(=O)[O-])=C(Sc4nc5cc(Cl)ccc5s4)CC[C@H]23)cs1.[Na+]", "MIC": 8},
      {"compound": "Cc1csc(SC2=C(C(=O)[O-])N3C(=O)[C@@H](NC(=O)/C(=N/OCCF)c4csc(N)n4)[C@H]3CC2)n1.[Na+]", "MIC": 64}
    ]},
    {"system": "Streptococcus pneumoniae", "assay": "In vitro antimicrobial activity against Streptococcus pneumoniae PARK strain", "type": "functional", "units": {"MIC": "µg/mL"}, "values": [
      {"compound": "Nc1ccc2nc(SC3=C(C(=O)[O-])N4C(=O)[C@@H](NC(=O)/C(=N/OCCF)c5csc(N)n5)[C@H]4CC3)sc2c1.[Na+]", "MIC": "< 0.008"},
      {"compound": "Nc1nc(/C(=N\\OCCF)C(=O)N[C@@H]2C(=O)N3C(C(=O)[O-])=C(Sc4nc5cc(Cl)ccc5s4)CC[C@H]23)cs1.[Na+]", "MIC": "< 0.008"},
      {"compound": "Cc1csc(SC2=C(C(=O)[O-])N3C(=O)[C@@H](NC(=O)/C(=N/OCCF)c4csc(N)n4)[C@H]3CC2)n1.[Na+]", "MIC": "< 0.008"}
    ]},
    {"system": "Staphylococcus aureus", "assay": "In vitro antimicrobial activity against Staphylococcus aureus X1.1 strain", "type": "functional", "units": {"MIC": "µg/mL"}, "values": [
      {"compound": "Nc1ccc2nc(SC3=C(C(=O)[O-])N4C(=O)[C@@H](NC(=O)/C(=N/OCCF)c5csc(N)n5)[C@H]4CC3)sc2c1.[Na+]", "MIC": 0.25},
      {"compound": "Nc1nc(/C(=N\\OCCF)C(=O)N[C@@H]2C(=O)N3C(C(=O)[O-])=C(Sc4nc5cc(Cl)ccc5s4)CC[C@H]23)cs1.[Na+]", "MIC": 0.125},
      {"compound": "Cc1csc(SC2=C(C(=O)[O-])N3C(=O)[C@@H](NC(=O)/C(=N/OCCF)c4csc(N)n4)[C@H]3CC2)n1.[Na+]", "MIC": 0.5}
    ]}
  ]
}
